Data set [1] can be described thus: In vitro metabolic stability with mouse liver microsomes. The format is in vitro ADME. As to conditions: for metabolic stability (in words): MLM + NADPH-generating system; for metabolic stability/PCSK9 IC50 ratio (in words): with respect to 5c. How it is done: All newly synthesized LSF derivatives of 5c were biologically evaluated to determine whether the introduced modifications influenced both metabolic stability and anti‐PCSK9 activity. Microsomal stability assays were conducted to assess the impact of LSF modifications on improving the stability of 5c. In these assays, LSF derivatives were incubated with mouse liver microsomes (MLM) and an NADPH‐generating system for 60 min, followed by HPLC analysis. Control samples included compounds and liver microsomes without the NADPH system, allowing for the assessment of nonspecific binding to microsomes. […] Acylated derivatives 12, 13, and 14 achieved stability levels exceeding 95%, as did the bicyclic derivative 7, which exemplifies a dual‐site functionalization.
MLM (pooled male) were obtained from Xenotech, LLC (Cambridge, Kansas City, USA). Glucose‐6‐phosphate (G6P), oxidized nicotinamide‐adenine‐dinucleotide phosphate (NADP^+), magnesium chloride (MgCl2), and glucose‐6‐phosphate‐dehydrogenase (G6PDH) were supplied by Sigma‐Aldrich (Milan, Italy). Metabolic stability assays were modified from Ferlenghi et al.^[ [33] ^] Briefly, samples were prepared in 100 mM phosphate buffered saline (PBS), pH 7.4, containing 1 mg ml^–1 MLM and a NADPH‐generating system (5 mM MgCl2, 10 mM glucose‐6‐phosphate, 2 mM NADP^+, 1.5 U ml^–1 of glucose‐6‐phosphate dehydrogenase). After incubation (37 °C, 5 min stirring), compounds stock solutions in DMSO were added to a final concentration of 10 µM. The final DMSO percentage in samples was kept at 0.5%. After 60 min, single aliquots of reaction mixture were withdrawn, added of two volumes of acetonitrile, centrifuged (10,000 g, 10 min) and the supernatant was analyzed by HPLC. The unspecific binding to MLM was evaluated by means of control samples in which the compounds were incubated in the absence of a NADPH generating system. The apparatus used for HPLC analysis was a Shimadzu instrument, with a reverse‐phase Nova‐Pak column (Waters) (C18 4 μm 3.9 × 150 mm, Waters). The mobile phase, pumped at a flow rate of 1.2 ml min^–1, consisted of water and acetonitrile in either a 50:50 (v/v) ratio (compounds 5c, 6a, 6b, 6c, 7, 8, 12, 13, 14, 17b) or a 40:60 (v/v) ratio (compounds 11 and 15) or a 30:70 (v/v) ratio (for compounds 17a, 18a, 18b). For compounds 9 and 10, a phosphate buffer (5.98 g L^–1 Na2HPO4, 0.19 g L^–1 KH2PO4, adjusted to pH 7.4 with 85% H3PO4 and supplemented with 1.4 mL L^–1 triethylamine; final pH: 8) and acetonitrile (50:50, v/v) were pumped at a flow rate of 2 mL min^–1. In all cases, column temperature was 35 °C, injection volume was 50 µl, and absorbance was monitored at 254 nm. Serial dilutions for the calibration curves were prepared in the interval 0.5–20 µM in either PBS:CH3CN or H2O:CH3CN mixture (50:50, v/v) for compounds 5c, 6a, 6b, 8, 9, 10, 11, 12, 13, 14, 15, 17a, 17b, 18a, 18b, and in acetonitrile for compounds 6c and 7.
(In general: Liver microsomes are vesicles of endoplasmic reticulum, rich in cytochrome P450 enzymes.)

For a further data set, the system named is secreted PCSK9. Also noted: method as in PMID 38160616. The settings on record: 5 µM; cited from earlier work.
On the set-up of data set [2]: method as in PMID 38160616. As to conditions: seven days of daily subcutaneous administration; cited from earlier work.
The subject of a further data set is PCSK9 protein. As to the kind of experiment: Western blot of PCSK9 protein levels in HepG2 cells. The data set is classed as cell-based, human. As to conditions: 10 µM, HepG2, 24 h. On the procedure:
(§1) The third step of our functional assay was focused on the most promising compounds from the previous step (6b and 7), looking at the PCSK9 and LDLR protein expressions in HepG2 cells treated with increasing concentrations of the compounds (2.5–5–10 µM). This analysis, conducted in comparison with 5c using a Western blot assay, aimed to provide a more comprehensive understanding of the intracellular activity and efficacy of these novel PCSK9i , further supporting their potential for preclinical development. […] Importantly, LDLR protein levels were increased by compound 7 only at 10 µM (+39%, p < 0.01, Figure 6B) as compared to basal condition.
(§2) HepG2 cells were seeded at the cellular density of 500,000 cells/well in a 6‐well tray, in 2 mL of complete medium, and incubated as described above. The day after, treatments were prepared in starving medium. The cells were washed once with PBS and then incubated with media containing treatments. […] Total protein content was measured through bicinchoninic acid (BCA) assay (Euroclone, EMP014250), according to manufacturer's instructions. […] Immunobands were detected with Imager Alliance Q9 ATOM Supreme by UVITEC (Cambridge, UK) after 5 min of membranes incubation in the dark with ECL Star solution (EuroClone, EMP001005). Every experimental condition was run in triplicate and the average cell viability and standard deviation was calculated.
(In general: Immunoblotting shows a protein as a band on a membrane.)

A further data set relates to LDLR protein. As to the kind of experiment: Western blot of LDLR protein levels in HepG2 cells. The data set is classed as cell-based, human. The settings on record: HepG2, 24 h. How it is done: as §1, §2

Take `Cc1cc(NCc2ccc(C(F)(F)F)cc2)cc(=O)n1Cc1ccc(C(F)(F)F)cc1` [Compound 5c]: in data set [1] (60 min), the “metabolic stability (in words)” value is listed as “suboptimal metabolic stability”. Also, the “PCSK9 secretion from HepG2 cells (in words)” value with secreted PCSK9 was “effectively reduced PCSK9 secretion”. Also, in data set [2], the “tolerability in mice (in words)” value is listed as “well tolerated”.

On to `Cc1cc(NCc2ccc(C(F)(F)F)cc2)c(Br)c(=O)n1Cc1ccc(C(F)(F)F)cc1` [Compound 6b, 3‐Bromo‐6‐Methyl‐1‐(4‐(Trifluoromethyl)Benzyl)‐4‐((4‐(Trifluoromethyl)Benzyl)Amino)pyridin‐2(1H)‐One], for which, in the data set with PCSK9 protein, the “maximal reduction of PCSK9 protein levels vs. basal” value was 93%. Besides, the “LDLR expression (in words)” value in the data set with LDLR protein (2.5–5–10 µM) is on record as “did not modulate its expression at all concentrations tested”. The “metabolic stability (in words)” value in data set [1] (60 min) is “greater stability compared to chlorinated 6a”. Further, in data set [1], the “metabolic stability/PCSK9 IC50 ratio (in words)” value is on record as “higher metabolic stability/PCSK9 IC50 ratio”.

For `Cc1cc2c(sc(=N)n2Cc2ccc(C(F)(F)F)cc2)c(=O)n1Cc1ccc(C(F)(F)F)cc1` [Compound 7, 2‐Imino‐6‐Methyl‐1,5‐Bis(4‐(Trifluoromethyl)benzyl)‐1,2‐Dihydrothiazolo[5,4‐c]pyridin‐4(5H)‐One], in the data set with PCSK9 protein, the “PCSK9 protein level change vs. basal” value is −42%. Moreover, the “LDLR protein level change vs. basal” value in the data set with LDLR protein (10 µM) is given as “+39%”. Also, the “metabolic stability, percentage of intact compound recovered relative to control” value in data set [1] (MLM 1 mg/ml + NADPH-generating system, 60 min, 10 µM, HPLC) is given as “exceeding 95%”. In addition, the “metabolic stability/PCSK9 IC50 ratio (in words)” value in data set [1] is reported as “higher metabolic stability/PCSK9 IC50 ratio”.
